What was measured:
Assay in all cases: KINOMEscan competition binding
Conditions in all cases: compound 10.0 µM
WNK1 (human) = WNK1 (human) (UniProt Q9H4A3)
WNK3 (human) = WNK3 (human) (UniProt Q9BYP7)
RPS6KA3 KD2 (human) = RPS6KA3 KD2 (human) (UniProt P51812)
GSG2 (human) = GSG2 (human) (UniProt Q8TF76)
SGK1 (human) = SGK1 (human) (UniProt O00141)
BUB1 (human) = BUB1 (human) (UniProt O43683)
[1] = system: ABL1 (human), P00519 [T315I]
[2] = system: ABL1 (human), P00519 [Q252H]
ABL1 (human) = ABL1 (human) (UniProt P00519)

Sequence of WNK3 (human) (Q9BYP7 whole entry, looked up): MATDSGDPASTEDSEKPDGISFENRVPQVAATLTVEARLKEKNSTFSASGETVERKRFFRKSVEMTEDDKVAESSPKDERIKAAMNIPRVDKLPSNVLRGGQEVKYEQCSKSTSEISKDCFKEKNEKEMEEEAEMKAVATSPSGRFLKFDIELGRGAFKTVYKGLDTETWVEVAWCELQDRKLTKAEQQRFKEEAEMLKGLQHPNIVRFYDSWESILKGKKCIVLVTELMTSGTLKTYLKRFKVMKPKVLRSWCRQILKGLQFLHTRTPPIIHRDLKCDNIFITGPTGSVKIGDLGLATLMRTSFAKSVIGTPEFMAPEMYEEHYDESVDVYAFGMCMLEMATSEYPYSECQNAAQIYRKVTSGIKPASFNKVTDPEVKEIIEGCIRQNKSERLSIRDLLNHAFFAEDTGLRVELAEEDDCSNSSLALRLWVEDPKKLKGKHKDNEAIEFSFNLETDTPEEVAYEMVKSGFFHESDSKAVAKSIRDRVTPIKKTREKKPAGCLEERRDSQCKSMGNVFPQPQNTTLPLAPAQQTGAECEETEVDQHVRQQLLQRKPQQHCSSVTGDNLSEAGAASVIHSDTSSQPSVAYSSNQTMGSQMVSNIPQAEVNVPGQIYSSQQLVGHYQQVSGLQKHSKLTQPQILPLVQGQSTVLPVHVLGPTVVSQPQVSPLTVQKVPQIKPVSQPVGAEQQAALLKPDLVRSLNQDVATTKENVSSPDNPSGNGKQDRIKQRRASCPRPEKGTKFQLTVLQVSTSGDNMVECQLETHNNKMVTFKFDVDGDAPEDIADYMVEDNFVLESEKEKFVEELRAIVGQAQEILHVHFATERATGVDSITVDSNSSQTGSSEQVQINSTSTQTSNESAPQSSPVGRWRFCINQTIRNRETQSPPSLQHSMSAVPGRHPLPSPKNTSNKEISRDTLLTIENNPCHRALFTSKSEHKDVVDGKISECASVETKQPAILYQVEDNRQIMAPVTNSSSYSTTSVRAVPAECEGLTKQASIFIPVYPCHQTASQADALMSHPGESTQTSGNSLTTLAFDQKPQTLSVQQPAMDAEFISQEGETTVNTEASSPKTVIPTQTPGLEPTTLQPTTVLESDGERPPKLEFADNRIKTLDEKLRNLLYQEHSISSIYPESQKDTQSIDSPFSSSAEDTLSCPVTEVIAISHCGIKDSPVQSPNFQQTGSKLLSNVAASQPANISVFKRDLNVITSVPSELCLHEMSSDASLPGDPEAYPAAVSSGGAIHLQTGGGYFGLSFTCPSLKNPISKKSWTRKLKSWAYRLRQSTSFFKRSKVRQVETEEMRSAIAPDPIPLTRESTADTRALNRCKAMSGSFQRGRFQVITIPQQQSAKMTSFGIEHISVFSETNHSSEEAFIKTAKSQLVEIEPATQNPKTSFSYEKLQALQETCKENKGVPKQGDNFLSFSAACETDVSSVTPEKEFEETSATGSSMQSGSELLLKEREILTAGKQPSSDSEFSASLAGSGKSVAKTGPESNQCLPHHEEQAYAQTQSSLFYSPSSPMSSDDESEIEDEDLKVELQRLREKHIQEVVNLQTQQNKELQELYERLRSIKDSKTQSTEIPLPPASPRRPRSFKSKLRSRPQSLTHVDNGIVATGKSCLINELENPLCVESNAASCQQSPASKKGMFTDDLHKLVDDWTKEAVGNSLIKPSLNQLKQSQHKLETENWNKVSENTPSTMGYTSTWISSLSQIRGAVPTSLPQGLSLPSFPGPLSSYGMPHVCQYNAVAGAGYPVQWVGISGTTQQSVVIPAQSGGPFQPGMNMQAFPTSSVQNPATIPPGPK
Sequence of SGK1 (human) (O00141 whole entry, looked up): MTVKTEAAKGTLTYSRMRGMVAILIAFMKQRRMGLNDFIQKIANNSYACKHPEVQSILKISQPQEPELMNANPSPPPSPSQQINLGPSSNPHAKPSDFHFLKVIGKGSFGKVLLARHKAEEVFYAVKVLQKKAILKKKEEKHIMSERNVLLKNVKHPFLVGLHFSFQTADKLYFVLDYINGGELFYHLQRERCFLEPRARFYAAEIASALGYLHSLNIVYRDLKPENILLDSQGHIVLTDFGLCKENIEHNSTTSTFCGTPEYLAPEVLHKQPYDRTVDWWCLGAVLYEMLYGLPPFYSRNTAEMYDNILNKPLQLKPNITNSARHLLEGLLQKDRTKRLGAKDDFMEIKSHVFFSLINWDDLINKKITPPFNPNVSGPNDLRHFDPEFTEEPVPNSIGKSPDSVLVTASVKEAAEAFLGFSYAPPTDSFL
Sequence of BUB1 (human) (O43683 whole entry, looked up): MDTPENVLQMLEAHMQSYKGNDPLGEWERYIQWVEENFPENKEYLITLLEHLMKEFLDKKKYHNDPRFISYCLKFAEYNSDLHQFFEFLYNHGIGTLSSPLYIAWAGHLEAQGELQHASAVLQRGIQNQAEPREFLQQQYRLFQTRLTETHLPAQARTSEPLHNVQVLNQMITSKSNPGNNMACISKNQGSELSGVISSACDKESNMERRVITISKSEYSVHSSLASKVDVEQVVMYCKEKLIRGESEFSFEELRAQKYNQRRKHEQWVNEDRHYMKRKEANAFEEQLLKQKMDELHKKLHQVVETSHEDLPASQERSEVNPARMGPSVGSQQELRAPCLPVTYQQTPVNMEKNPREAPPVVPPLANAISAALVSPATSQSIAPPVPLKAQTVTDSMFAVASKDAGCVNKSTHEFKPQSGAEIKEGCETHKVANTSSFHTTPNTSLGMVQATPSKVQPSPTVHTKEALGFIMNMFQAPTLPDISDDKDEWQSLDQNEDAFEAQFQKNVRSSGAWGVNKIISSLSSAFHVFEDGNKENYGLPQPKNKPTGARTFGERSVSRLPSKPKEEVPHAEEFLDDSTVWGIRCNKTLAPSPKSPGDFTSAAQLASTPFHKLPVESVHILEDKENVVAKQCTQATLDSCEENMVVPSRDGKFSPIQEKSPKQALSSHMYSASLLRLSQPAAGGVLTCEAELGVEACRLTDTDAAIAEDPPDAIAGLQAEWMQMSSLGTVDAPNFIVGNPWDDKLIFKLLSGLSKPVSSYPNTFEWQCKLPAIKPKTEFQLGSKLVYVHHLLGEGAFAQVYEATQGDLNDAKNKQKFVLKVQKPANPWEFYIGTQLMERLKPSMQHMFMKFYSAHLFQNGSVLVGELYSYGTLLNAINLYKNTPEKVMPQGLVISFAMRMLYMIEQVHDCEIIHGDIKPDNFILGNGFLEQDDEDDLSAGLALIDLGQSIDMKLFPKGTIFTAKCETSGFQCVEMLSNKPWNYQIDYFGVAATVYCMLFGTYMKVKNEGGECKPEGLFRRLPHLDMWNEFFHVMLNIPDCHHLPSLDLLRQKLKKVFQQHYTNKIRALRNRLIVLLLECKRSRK
Sequence of RPS6KA3 KD2 (human) (P51812 whole entry, looked up): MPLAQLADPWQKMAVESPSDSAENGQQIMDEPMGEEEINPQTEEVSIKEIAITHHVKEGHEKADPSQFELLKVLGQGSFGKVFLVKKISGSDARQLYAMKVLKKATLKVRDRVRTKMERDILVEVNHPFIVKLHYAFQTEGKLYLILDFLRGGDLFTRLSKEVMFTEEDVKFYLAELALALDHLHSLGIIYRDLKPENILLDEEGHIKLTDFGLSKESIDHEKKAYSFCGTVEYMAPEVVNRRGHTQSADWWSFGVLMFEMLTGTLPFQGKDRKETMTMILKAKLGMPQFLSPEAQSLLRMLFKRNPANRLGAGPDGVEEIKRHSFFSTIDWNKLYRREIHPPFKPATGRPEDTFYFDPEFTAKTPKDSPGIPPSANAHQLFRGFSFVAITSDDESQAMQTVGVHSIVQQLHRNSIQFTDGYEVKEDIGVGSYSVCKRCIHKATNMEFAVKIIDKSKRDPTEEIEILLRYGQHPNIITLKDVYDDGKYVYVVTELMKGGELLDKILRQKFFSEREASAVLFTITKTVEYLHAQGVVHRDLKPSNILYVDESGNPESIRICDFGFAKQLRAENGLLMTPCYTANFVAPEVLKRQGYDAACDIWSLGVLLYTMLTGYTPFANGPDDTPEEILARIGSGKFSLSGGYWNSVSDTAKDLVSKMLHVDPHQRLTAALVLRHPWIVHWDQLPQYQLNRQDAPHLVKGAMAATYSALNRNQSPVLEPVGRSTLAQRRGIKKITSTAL
Sequence of GSG2 (human) (Q8TF76 whole entry, looked up): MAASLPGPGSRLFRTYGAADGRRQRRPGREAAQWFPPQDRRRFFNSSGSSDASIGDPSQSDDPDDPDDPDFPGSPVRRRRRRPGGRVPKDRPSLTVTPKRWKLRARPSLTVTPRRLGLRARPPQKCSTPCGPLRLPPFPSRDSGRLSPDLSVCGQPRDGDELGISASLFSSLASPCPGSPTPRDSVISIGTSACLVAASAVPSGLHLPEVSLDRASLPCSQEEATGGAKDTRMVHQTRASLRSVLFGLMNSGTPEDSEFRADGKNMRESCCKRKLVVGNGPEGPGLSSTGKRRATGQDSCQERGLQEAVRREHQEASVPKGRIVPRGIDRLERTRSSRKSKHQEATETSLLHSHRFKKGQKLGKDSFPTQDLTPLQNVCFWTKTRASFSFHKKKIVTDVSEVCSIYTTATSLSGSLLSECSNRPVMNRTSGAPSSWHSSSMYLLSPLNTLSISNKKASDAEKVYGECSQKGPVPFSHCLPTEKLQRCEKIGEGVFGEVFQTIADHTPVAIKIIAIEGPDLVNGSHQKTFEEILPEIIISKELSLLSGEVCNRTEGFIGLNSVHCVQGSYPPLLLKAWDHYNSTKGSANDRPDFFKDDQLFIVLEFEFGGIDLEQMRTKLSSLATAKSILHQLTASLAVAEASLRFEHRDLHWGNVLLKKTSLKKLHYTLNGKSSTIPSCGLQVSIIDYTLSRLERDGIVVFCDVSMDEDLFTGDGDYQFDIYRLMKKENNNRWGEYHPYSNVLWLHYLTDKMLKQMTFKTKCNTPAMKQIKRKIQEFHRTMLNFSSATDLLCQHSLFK

| Structure (SMILES) | kinase still bound, per cent of control [1] | kinase still bound, per cent of control [2] | kinase still bound, per cent of control (ABL1 (human)) | other results |
| --- | --- | --- | --- | --- |
| N#Cc1c(NC(=O)c2cccc3ccccc23)sc2c1CCCC2 | – | – | – | kinase still bound, per cent of control (WNK1 (human)): 89%; kinase still bound, per cent of control (WNK3 (human)): 100%; kinase still bound, per cent of control (RPS6KA3 KD2 (human)): 100%; kinase still bound, per cent of control (GSG2 (human)): 100%; kinase still bound, per cent of control (SGK1 (human)): 100%; kinase still bound, per cent of control (BUB1 (human)): 100% |
| Cc1ccc2nc(NCCN)c3ncc(C)n3c2c1 | 100% | – | – | – |
| CCOc1cc2ncc(C#N)c(Nc3ccc(OCc4ccccn4)c(Cl)c3)c2cc1NC(=O)/C=C/CN(C)C | – | 71% | 100% | – |
| O=C(NOC[C@H](O)CO)c1ccc(F)c(F)c1Nc1ccc(I)cc1F | – | – | – | kinase still bound, per cent of control (WNK1 (human)): 92%; kinase still bound, per cent of control (WNK3 (human)): 100%; kinase still bound, per cent of control (RPS6KA3 KD2 (human)): 100%; kinase still bound, per cent of control (GSG2 (human)): 100%; kinase still bound, per cent of control (SGK1 (human)): 100%; kinase still bound, per cent of control (BUB1 (human)): 100% |
| C=CC(=O)Nc1cccc(Oc2nc(Nc3ccc(N4CCN(C)CC4)cc3OC)ncc2Cl)c1 | 100% | 100% | 100% | – |
| Cc1ccc(C(=O)Nc2cccc(C(F)(F)F)c2)cc1Nc1cncc(C(N)=O)c1 | 100% | 100% | 100% | – |
| CCCS(=O)(=O)Nc1ccc(F)c(C(=O)c2c[nH]c3ncc(-c4ccc(Cl)cc4)cc23)c1F | 79% | – | 57% | – |
| CCC(=O)N1CCN(c2ccc(-n3c(=O)ccc4cnc5ccc(-c6cnc7ccccc7c6)cc5c43)cc2C(F)(F)F)CC1 | – | – | 60% | – |
| Cn1c(=O)n(-c2ccc(C(C)(C)C#N)cc2)c2c3cc(-c4cnc5ccccc5c4)ccc3ncc21 | 100% | 100% | 100% | – |
| OCCCNc1cc(-c2ccnc(Nc3cccc(Cl)c3)n2)ccn1 | 100% | 100% | 100% | – |
| CC[C@@H]1C(=O)N(C)c2cnc(Nc3ccc(C(=O)NC4CCN(C)CC4)cc3OC)nc2N1C1CCCC1 | 100% | 100% | 100% | – |
| COc1cc(C(=O)NC2CCN(C)CC2)ccc1Nc1ncc2c(n1)N(C1CCCC1)C(C)CC(=O)N2C (centres undefined) | 100% | 100% | 100% | – |
| COc1cc(C(=O)NC2CCN(C)CC2)ccc1Nc1ncc2c(n1)N(C1CCCC1)CCC(=O)N2C(C)C | 100% | 100% | 100% | – |

— the kinase profiling compilation of Christmann-Franck et al. (2016)
